Measurements published in patent publication US20260217703A1, “INHIBITORS OF a-HEMOL YSIN OF STAPHYLOCOCCUS AUREUS” (HELMHOLTZ-ZENTRUM FÜR INFEKTIONSFORSCHUNG GMBH, priority 2022, published 2026).

What was measured:
[1] = molecular target: hemolysin alpha from Staphylococcus aureus (Staphylococcus aureus, UniProt P09616); experiment: cell-based
[2] = molecular target: S. aureus Alpha hemolysin (Staphylococcus aureus, UniProt P09616); experiment: cell-based
Sequence of S. aureus Alpha hemolysin (P09616 27-319 limits assumed): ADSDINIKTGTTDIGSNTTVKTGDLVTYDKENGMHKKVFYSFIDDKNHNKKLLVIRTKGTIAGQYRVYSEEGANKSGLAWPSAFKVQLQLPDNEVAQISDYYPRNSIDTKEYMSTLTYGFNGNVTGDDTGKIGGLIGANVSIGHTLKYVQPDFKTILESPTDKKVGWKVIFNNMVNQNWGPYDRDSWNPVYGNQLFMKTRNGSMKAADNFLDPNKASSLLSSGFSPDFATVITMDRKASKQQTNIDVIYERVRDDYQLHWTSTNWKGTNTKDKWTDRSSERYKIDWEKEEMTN

Sequence of hemolysin alpha from Staphylococcus aureus (P09616 27-319 limits assumed): as above

SMILES | IC50 [1] [nM] | IC50 [2] [nM]
Cc1nc2cc(-c3ccc(NS(=O)(=O)c4nc5[nH]c(=O)c(=O)[nH]c5cc4C)cc3C(F)(F)F)ccc2o1 [Compound 38, 7-methyl-N-(4-(2-methylbenzo[d]oxazol-5-yl)-3-(trifluoromethyl)phenyl)-2,3-dioxo-1,2,3,4-tetrahydropyrido[2,3-b]pyrazine-6-sulfonamide] | < 30 | 100 to 1000
Cc1nc2ccc(-c3ccc(NS(=O)(=O)c4ccc5[nH]c(=O)c(=O)[nH]c5n4)cc3Cl)cc2o1 [Compound 28, N-(3-chloro-4-(2-methylbenzo[d]oxazol-6-yl)phenyl)-2,3-dioxo-1,2,3,4-tetrahydropyrido[2,3-b]pyrazine-6-sulfonamide] | < 30 | 100 to 1000
O=c1[nH]c2cc(Br)c(S(=O)(=O)Nc3ccc(OC(F)(F)F)cc3)nc2[nH]c1=O [Compound 25, 7-bromo-2,3-dioxo-N-(4-(trifluoromethoxy)phenyl)-1,2,3,4-tetrahydropyrido[2,3-b]pyrazine-6-sulfonamide] | 30 to 100 | 100 to 1000
CC(C)c1cc2[nH]c(=O)c(=O)[nH]c2nc1S(=O)(=O)Nc1ccc(OC(F)(F)F)cc1 [Compound 34, 7-isopropyl-2,3-dioxo-N-(4-(trifluoromethoxy)phenyl)-1,2,3,4-tetrahydropyrido[2,3-b]pyrazine-6-sulfonamide] | 30 to 100 | 100 to 1000
O=c1[nH]c2ccc(S(=O)(=O)Nc3ccc(-c4ccc(F)cc4)c(Cl)c3)nc2[nH]c1=O [Compound 29, N-(2-chloro-4′-fluoro-[1,1′-biphenyl]-4-yl)-2,3-dioxo-1,2,3,4-tetrahydropyrido[2,3-b]pyrazine-6-sulfonamide] | 100 to 1000 | 1000 to 6000
Cc1cc2[nH]c(=O)c(=O)[nH]c2nc1S(=O)(=O)Nc1ccc(-c2ccc(C#N)cc2)c(Cl)c1 [Compound 17, N-(2-chloro-4′-cyano-[1,1′-biphenyl]-4-yl)-7-methyl-2,3-dioxo-1,2,3,4-tetrahydropyrido[2,3-b]pyrazine-6-sulfonamide] | 30 to 100 | 100 to 1000
Cc1cc2[nH]c(=O)c(=O)[nH]c2nc1S(=O)(=O)Nc1cnc(-c2ccc(F)cc2)c(Cl)c1 [Compound 12, N-(5-chloro-6-(4-fluorophenyl)pyridin-3-yl)-7-methyl-2,3-dioxo-1,2,3,4-tetrahydropyrido[2,3-b]pyrazine-6-sulfonamide] | 30 to 100 | 1000 to 6000
Cc1cc2[nH]c(=O)c(=O)[nH]c2nc1S(=O)(=O)Nc1ccc(-c2ccc(F)c(Cl)c2)c(Cl)c1 [Compound 10, N-(2,3′-dichloro-4′-fluoro-[1,1′-biphenyl]-4-yl)-7-methyl-2,3-dioxo-1,2,3,4-tetrahydropyrido[2,3-b]pyrazine-6-sulfonamide] | 30 to 100 | 1000 to 6000
Cc1cc2[nH]c(=O)c(=O)[nH]c2nc1S(=O)(=O)Nc1ccc(C23CC(C2)C3)cc1 [Compound 23, N-(4-(bicyclo[1.1.1]pentan-1-yl)phenyl)-7-methyl-2,3-dioxo-1,2,3,4-tetrahydropyrido[2,3-b]pyrazine-6-sulfonamide] | < 30 | 100 to 1000
Cc1cc2[nH]c(=O)c(=O)[nH]c2nc1S(=O)(=O)Nc1ccc(OC(F)(F)F)cc1 [Compound 22, 7-methyl-2,3-dioxo-N-(4-(trifluoromethoxy)phenyl)-1,2,3,4-tetrahydropyrido[2,3-b]pyrazine-6-sulfonamide] | < 30 | < 30
Cc1cc2[nH]c(=O)c(=O)[nH]c2nc1S(=O)(=O)Nc1cnc(-c2ccc3c(c2)NC(=O)CO3)c(Cl)c1 [Compound 36, N-(5-chloro-6-(3-oxo-3,4-dihydro-2H-benzo[b][1,4]oxazin-6-yl)pyridin-3-yl)-7-methyl-2,3-dioxo-1,2,3,4-tetrahydropyrido[2,3-b]pyrazine-6-sulfonamide] | 30 to 100 | 1000 to 6000
Cc1cc2[nH]c(=O)c(=O)[nH]c2nc1S(=O)(=O)Nc1ccc(-c2ccc3oc(C4CC4)nc3c2)c(Cl)c1 [Compound 41, N-(3-chloro-4-(2-cyclopropylbenzo[d]oxazol-5-yl)phenyl)-7-methyl-2,3-dioxo-1,2,3,4-tetrahydropyrido[2,3-b]pyrazine-6-sulfonamide] | < 30 | 30 to 100
Cc1nc2cc(-c3ccc(NS(=O)(=O)c4nc5[nH]c(=O)c(=O)[nH]c5cc4C)cc3C)ccc2o1 [Compound 40, 7-methyl-N-(3-methyl-4-(2-methylbenzo[d]oxazol-5-yl)phenyl)-2,3-dioxo-1,2,3,4-tetrahydropyrido[2,3-b]pyrazine-6-sulfonamide] | < 30 | 30 to 100
Cc1cc2[nH]c(=O)c(=O)[nH]c2nc1S(=O)(=O)Nc1ccc(-c2ccc3cc[nH]c3c2)c(Cl)c1 [Compound 16, N-(3-chloro-4-(1H-indol-6-yl)phenyl)-7-methyl-2,3-dioxo-1,2,3,4-tetrahydropyrido[2,3-b]pyrazine-6-sulfonamide] | < 30 | 100 to 1000
COc1ccc(-c2ccc(NS(=O)(=O)c3nc4[nH]c(=O)c(=O)[nH]c4cc3C)cc2Cl)cc1F [Compound 14, N-(2-chloro-3′-fluoro-4′-methoxy-[1,1′-biphenyl]-4-yl)-7-methyl-2,3-dioxo-1,2,3,4-tetrahydropyrido[2,3-b]pyrazine-6-sulfonamide] | 30 to 100 | 100 to 1000
Cc1cc(NS(=O)(=O)c2nc3[nH]c(=O)c(=O)[nH]c3cc2C)ccc1Br [Compound 18, N-(4-bromo-3-methylphenyl)-7-methyl-2,3-dioxo-1,2,3,4-tetrahydropyrido[2,3-b]pyrazine-6-sulfonamide] | 100 to 1000 | 100 to 1000
Cc1cc2[nH]c(=O)c(=O)[nH]c2nc1S(=O)(=O)Nc1ccc(C2=CCCCC2)cc1 [Compound 20, 7-methyl-2,3-dioxo-N-(2′,3′,4′,5′-tetrahydro-[1,1′-biphenyl]-4-yl)-1,2,3,4-tetrahydropyrido[2,3-b]pyrazine-6-sulfonamide] | 100 to 1000 | 100 to 1000
Cc1cc2[nH]c(=O)c(=O)[nH]c2nc1S(=O)(=O)Nc1ccc2ccccc2c1 [Compound 24, 7-methyl-N-(naphthalen-2-yl)-2,3-dioxo-1,2,3,4-tetrahydropyrido[2,3-b]pyrazine-6-sulfonamide] | 100 to 1000 | 100 to 1000
Cc1nc2ccc(-c3ccc(NS(=O)(=O)c4ccc5[nH]c(=O)c(=O)[nH]c5n4)cc3Cl)cc2[nH]1 [Compound 30, N-(3-chloro-4-(2-methyl-1H-benzo[d]imidazol-6-yl)phenyl)-2,3-dioxo-1,2,3,4-tetrahydropyrido[2,3-b]pyrazine-6-sulfonamide] | 1000 to 3500 | –
Cc1nc2cc(-c3ccc(NS(=O)(=O)c4nc5[nH]c(=O)c(=O)[nH]c5cc4C)cc3Cl)ccc2o1 [Compound 15, N-(3-chloro-4-(2-methylbenzo[d]oxazol-5-yl)phenyl)-7-methyl-2,3-dioxo-1,2,3,4-tetrahydropyrido[2,3-b]pyrazine-6-sulfonamide] | < 30 | 30 to 100
C=C(C)c1cc2[nH]c(=O)c(=O)[nH]c2nc1S(=O)(=O)Nc1ccc(OC(F)(F)F)cc1 [Compound 27, 2,3-dioxo-7-(prop-1-en-2-yl)-N-(4-(trifluoromethoxy)phenyl)-1,2,3,4-tetrahydropyrido[2,3-b]pyrazine-6-sulfonamide] | < 30 | < 30
O=c1[nH]c2ccc(S(=O)(=O)Nc3ccc(OC(F)(F)F)cc3)nc2[nH]c1=O [Compound 26, 2,3-dioxo-N-(4-(trifluoromethoxy)phenyl)-1,2,3,4-tetrahydropyrido[2,3-b]pyrazine-6-sulfonamide] | 100 to 1000 | 100 to 1000
Cc1nc2cc(-c3ncc(NS(=O)(=O)c4nc5[nH]c(=O)c(=O)[nH]c5cc4C)cc3Cl)ccc2o1 [Compound 35, N-(5-chloro-6-(2-methylbenzo[d]oxazol-5-yl)pyridin-3-yl)-7-methyl-2,3-dioxo-1,2,3,4-tetrahydropyrido[2,3-b]pyrazine-6-sulfonamide] | < 30 | 100 to 1000
Cc1cc(NS(=O)(=O)c2nc3[nH]c(=O)c(=O)[nH]c3cc2C)ccc1-c1ccc(F)cc1 [Compound 33, N-(4′-fluoro-2-methyl-[1,1′-biphenyl]-4-yl)-7-methyl-2,3-dioxo-1,2,3,4-tetrahydropyrido[2,3-b]pyrazine-6-sulfonamide] | 100 to 1000 | 30 to 100
Cc1cc2[nH]c(=O)c(=O)[nH]c2nc1S(=O)(=O)Nc1ccc(-c2ccc(F)cc2)c(C(F)(F)F)c1 [Compound 32, N-(4′-fluoro-2-(trifluoromethyl)-[1,1′-biphenyl]-4-yl)-7-methyl-2,3-dioxo-1,2,3,4-tetrahydropyrido[2,3-b]pyrazine-6-sulfonamide] | 100 to 1000 | 100 to 1000
Cc1cc2[nH]c(=O)c(=O)[nH]c2nc1S(=O)(=O)Nc1ccc(C(C)C)cc1 [Compound 19, N-(4-isopropylphenyl)-7-methyl-2,3-dioxo-1,2,3,4-tetrahydropyrido[2,3-b]pyrazine-6-sulfonamide] | 100 to 1000 | 100 to 1000
Cc1cc2[nH]c(=O)c(=O)[nH]c2nc1S(=O)(=O)Nc1ccc(-c2ccc3oc(C(C)C)nc3c2)c(Cl)c1 [Compound 37, N-(3-chloro-4-(2-isopropylbenzo[d]oxazol-5-yl)phenyl)-7-methyl-2,3-dioxo-1,2,3,4-tetrahydropyrido[2,3-b]pyrazine-6-sulfonamide] | < 30 | 100 to 1000
Cc1nc2cc(-c3ccc(NS(=O)(=O)c4nc5[nH]c(=O)c(=O)[nH]c5cc4C)cc3Cl)cnc2o1 [Compound 39, N-(3-chloro-4-(2-methyloxazolo[5,4-b]pyridin-6-yl)phenyl)-7-methyl-2,3-dioxo-1,2,3,4-tetrahydropyrido[2,3-b]pyrazine-6-sulfonamide] | < 30 | 30 to 100
Cc1cc2[nH]c(=O)c(=O)[nH]c2nc1S(=O)(=O)Nc1cnc(-c2cncc(Cl)c2)c(Cl)c1 [Compound 13, N-(3,5′-dichloro-[2,3′-bipyridin]-5-yl)-7-methyl-2,3-dioxo-1,2,3,4-tetrahydropyrido[2,3-b]pyrazine-6-sulfonamide] | 1000 to 3500 | –
